For one series, the system named is Lgr5+ cells. As to the kind of experiment: Lgr5+ Assay. Type of series: cell-based. The note with it: Table 5.
The target of series [1] is T1, GSK3-alpha (Homo sapiens, UniProt P49840). The settings on record: cited from earlier work; for GSK-3 alpha: Table 5.
The target in series [2] is T1, GSK3-alpha. As to the kind of experiment: GSK3-alpha inhibitor potency (Tables 2 and 5). The format is biochemical.
The next series deals with GSK3-beta (Homo sapiens, UniProt P49841). The note with it: cited from earlier work.
Chain of GSK3-beta (P49841 whole entry): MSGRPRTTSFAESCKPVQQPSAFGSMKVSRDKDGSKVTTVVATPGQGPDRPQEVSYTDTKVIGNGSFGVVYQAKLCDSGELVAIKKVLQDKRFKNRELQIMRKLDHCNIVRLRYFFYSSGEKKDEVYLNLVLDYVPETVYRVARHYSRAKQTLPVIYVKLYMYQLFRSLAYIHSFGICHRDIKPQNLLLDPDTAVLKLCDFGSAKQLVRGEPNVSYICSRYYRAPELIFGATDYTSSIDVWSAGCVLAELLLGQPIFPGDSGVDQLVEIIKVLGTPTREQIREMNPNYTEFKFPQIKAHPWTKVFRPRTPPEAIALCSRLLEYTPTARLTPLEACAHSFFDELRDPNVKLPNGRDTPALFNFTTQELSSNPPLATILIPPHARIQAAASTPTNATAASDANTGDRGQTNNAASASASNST
Series [3] is described as follows: Blood/plasma valproic acid levels after intravenous sodium valproate. Type of series: in vivo. The note with it: guinea pig, i.v. 100 mg/mL sodium valproate at 20 μL/min for 60 minutes (120 mg, about 330 mg/kg); FIG. 2A.
A short description of series [4]: Perilymph valproic acid along the cochlea (sequential apical sampling) after systemic sodium valproate. Type of series: in vivo. The settings on record: guinea pig, perilymph at 3 hours, therapeutic level as determined in vitro on primary cochlear Lgr5 cells.
Series [5] is described as follows: Perilymph valproic acid after systemic plus local administration versus local-only administration. The format is in vivo. The note with it: guinea pig, i.v. 25 mg/mL sodium valproate plus 20 μL poloxamer formulation (sodium valproate 88.63 mg/mL, CHIR99021 3.14 mg/mL) at round window niche, perilymph at 3 hours; FIG. 4.

Entries after “also recorded” stand apart in the source; their conditions may differ. Where two headings read alike, the source gives them in different places.

T1 sequence (P49840 whole entry): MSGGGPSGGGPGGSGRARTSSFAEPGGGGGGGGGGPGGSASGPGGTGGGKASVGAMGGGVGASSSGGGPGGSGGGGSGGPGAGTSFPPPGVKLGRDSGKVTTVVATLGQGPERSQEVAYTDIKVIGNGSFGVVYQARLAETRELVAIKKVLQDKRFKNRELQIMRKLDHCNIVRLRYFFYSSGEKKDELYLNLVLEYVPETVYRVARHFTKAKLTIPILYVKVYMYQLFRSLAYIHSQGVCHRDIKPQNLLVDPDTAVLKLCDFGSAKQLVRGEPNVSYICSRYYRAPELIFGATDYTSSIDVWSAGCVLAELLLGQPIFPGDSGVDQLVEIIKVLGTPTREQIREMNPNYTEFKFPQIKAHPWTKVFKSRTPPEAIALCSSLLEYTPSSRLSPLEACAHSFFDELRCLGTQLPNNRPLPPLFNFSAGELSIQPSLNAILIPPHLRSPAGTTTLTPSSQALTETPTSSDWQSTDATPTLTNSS

`N#Cc1ccc2c(c1)/C(=C1\C=CC(CN3CCOCC3)=CN1)C(=O)N2` [AZD1080, (Z)-3-(5-(morpholinomethyl)pyridin-2(1H)-ylidene)-2-oxoindoline-5-carbonitrile]: the “Lgr5 + Assay” value in the series with Lgr5+ cells was 1 to 5 µM. At GSK3-alpha [1] (Table 2), the “Potency (nM) GSK3-alpha” value is 6.9 nM. In addition, the GSK-3 alpha at GSK3-alpha [1] is given as 6.9 nM.
For `COc1ccccc1[C@@H]1C2=C(CC(C)(C)CC2=O)N=C2NNC(C(F)(F)F)=C21` [BRD1172, (R)-4-(2-methoxyphenyl)-7,7-dimethyl-3-(trifluoromethyl)-1,2,4,6,7,8-hexahydro-5H-pyrazolo[3,4-b]quinolin-5-one], the “Ratio of alpha to beta” value at GSK3-alpha [2] worked out at 3.3. The “Potency (nM) GSK3-alpha” value at GSK3-alpha [1] is on record as 3 nM. In addition, the “Potency (nM) GSK3-beta” value at GSK3-beta is on record as 10 nM.
On to `CC1(C)CC(=O)C2=C(C1)Nc1n[nH]c(C(F)(F)F)c1[C@]2(C)c1ccccc1` [BRD1652, N-4,7,7-trimethyl-4-phenyl-3-(trifluoromethyl)-2,4,6,7,8,9-hexahydro-5H-pyrazolo[3,4-b]quinolin-5-one], for which the “Potency (nM) GSK3-alpha” value on GSK3-alpha [1] (Table 2) is 0.4 nM. Moreover, the “Potency (nM) GSK3-beta” value at GSK3-beta (Table 2) is on record as 4 nM.
On to `Cc1cnc(-c2cnc(NCCNc3ccc(C#N)cn3)nc2-c2ccc(Cl)cc2Cl)[nH]1` [CHIR99021, 6-[[2-[[4-(2,4-dichlorophenyl)-5-(5-methyl-1H-imidazol-2-yl)-2-pyrimidinyl]amino]ethyl]amino]-3-pyridinecarbonitrile], for which, in the series on Lgr5+ cells, the “Lgr5 + Assay” value was in the range of 2 to 6 µM.
With `Cn1cc(C2=C(c3cccc(N)c3)C(=O)NC2=O)c2ccccc21` [Compound 3, 3-(3-aminophenyl)-4-(1-methyl-1H-indol-3-yl)-1H-pyrrole-2,5-dione], on GSK3-alpha [1] (Table 2), the “Potency (nM) GSK3-alpha” value was 3 nM. For the same compound, the “Potency (nM) GSK3-beta” value on GSK3-beta (Table 2) is given as 10 nM.
`CO[C@H]1CC[C@H](NC(=O)c2n[nH]cc2NC(=O)C2CCC(F)(F)CC2)CC1` [Compound 4a, 4-(4,4-difluorocyclohexane-1-carboxamido)-N-((1r,4r)-4-metboxycyclohexyl)-1H-pyrazole-3-carboxamide]: on GSK3-beta (Table 2), the “Potency (nM) GSK3-beta” value is recorded as 8 nM.
For `CO[C@H]1CC[C@H](NC(=O)c2n[nH]cc2NC(=O)c2ccc(N3CCN(C)CC3)cc2)CC1` [Compound 4t, N-((1r,4r)-4-methoxycyclohexyl)-4-(4-(4-methylpiperazin-1-yl)benzamido)-1H-pyrazole-3-carboxamide], the “Potency (nM) GSK3-beta” value at GSK3-beta (Table 2) is on record as less than 5 nM.
In the case of `CO[C@H]1CC[C@H](NC(=O)c2n[nH]cc2NC(=O)c2ncoc2-c2ccccc2)CC1` [Compound 4z, N-(3-(((1r,4r)-4-methoxycyclohexyl)carbamoyl)-1H-pyrazol-4-yl)-5-phenyloxazole-4-carboxamide], at GSK3-beta (Table 2), the “Potency (nM) GSK3-beta” value is 5 nM.
`Cc1[nH]nc2c1C(c1cccc(F)c1)C1=C(CC(C)(C)CC1=O)N2` (stereo not drawn) [Compound 9, 4-(3-fluorophenyl)-3,7,7-trimethyl-2,4,6,7,8,9-hexahydro-5H-pyrazolo[3,4-b]quinolin-5-one]: the “Potency (nM) GSK3-alpha” value at GSK3-alpha [1] (Table 2) was 62 nM. Besides, the “Potency (nM) GSK3-beta” value at GSK3-beta (Table 2) is given as 156 nM.
For the compound `Cc1ccccc1C1C2=C(CC(C)(C)CC2=O)Nc2n[nH]c(C)c21` (stereo not drawn) [Compound 11, 3,7,7-trimethyl-4-(o-tolyl)-2,4,6,7,8,9-hexahydro-5H-pyrazolo[3,4-b]quinolin-5-one], the “Potency (nM) GSK3-alpha” value at GSK3-alpha [1] (Table 2) is listed as 32 nM. Moreover, the “Potency (nM) GSK3-beta” value at GSK3-beta (Table 2) is 102 nM.
For `Cc1[nH]nc2c1[C@](C)(c1ccccc1)C1=C(CC(C)(C)CC1=O)N2` [Compound 16, (S)-3,4,7,7-tetramethyl-4-phenyl-2,4,6,7,8,9-hexahydro-5H-pyrazolo[3,4-b]quinolin-5-one], the “Potency (nM) GSK3-alpha” value on GSK3-alpha [1] (Table 2) was 8 nM. At GSK3-beta (Table 2), the “Potency (nM) GSK3-beta” value is 26 nM.
On to `COc1ccc(-c2cnc3[nH]cc(/C=C/C(=O)NCc4ccncc4)cc2-3)cc1` [Compound 27, (E)-3-(3-(4-methoxyphenyl)-7H-pyrrolo[2,3-b]pyridin-5-yl)-N-(pyridin-4-ylmethyl)acrylamide], for which the “Potency (nM) GSK3-alpha” value on GSK3-alpha [1] (Table 2) is on record as 42 nM. For the same compound, the “Potency (nM) GSK3-beta” value at GSK3-beta (Table 2) was 140 nM.
Consider `c1ccc(Nc2ncc3nnn(-c4ccccc4)c3n2)cc1` [Compound 90, N,3-diphenyl-3H-[1,2,3]triazolo[4,5-d]pyrimidin-5-amine], for which the “Potency (nM) GSK3-alpha” value on GSK3-alpha [1] (Table 2) is reported as 330 nM. Moreover, on GSK3-beta (Table 2), the “Potency (nM) GSK3-beta” value was 628 nM.
As for `O=C(O)COc1ccc(Nc2ncc3nnn(-c4ccccc4)c3n2)cc1` [Compound 92, 2-(4-((3-phenyl-3H-[1,2,3]triazolo[4,5-d]pyrimidin-5-yl)amino)phenoxy)acetic acid], the “Potency (nM) GSK3-alpha” value at GSK3-alpha [1] (Table 2) is 9 nM. Also, at GSK3-beta (Table 2), the “Potency (nM) GSK3-beta” value is 13 nM.
For the compound `Cc1ccc(C(=O)Nc2c[nH]nc2C(=O)NCCCOC(C)C)cn1` [GSK-3 Inhibitor XXII, 6-methyl-N-[3-[[3-(1-methylethoxy)propyl]carbamoyl]-1H-pyrazol-4-yl]pyridine-3-carboxamide], the “Lgr5 + Assay” value in the series on Lgr5+ cells is 0.2 to 1 µM. Further, the “Potency (nM) GSK3-alpha” value on GSK3-alpha [1] (Table 2) was 2.3 nM. For the same compound, on GSK3-alpha [1], the GSK-3 alpha is on record as 2.3 nM.
In the case of `O=C1NC(=O)C(c2cnc3ccccn23)=C1c1cn2c3c(cc(F)cc13)CN(C(=O)N1CCCCC1)CC2` [LY2090314, 3-(9-fluoro-2-(piperidine-1-carbonyl)-1,2,3,4-tetrahydro-[1,4]diazepino[6,7,1-hi]indol-7-yl)-4-(imidazo[1,2-a]pyridin-3-yl)-1H-pyrrole-2,5-dione], the “Lgr5 + Assay” value in the series on Lgr5+ cells was in the range of 0.005 to 0.02 µM. At GSK3-alpha [1], the GSK-3 alpha is reported as 2.1 nM. The GSK3-beta potency on GSK3-beta (Table 5) is reported as 0.9 nM.
Take `CCCC(CCC)C(=O)[O-].[Na+]` [Sodium Valproate, sodium 2-propylpentanoate]: the “time at which plasma levels peaked” value in series [3] was not above 1 h. The “distribution and level of valproate in cochlear perilymph” value in series [4] (i.v. 25 mg/mL sodium valproate at 20 μL/min for 60 min (about 26 mg valproate)) is “did not achieve therapeutic levels”. In series [4] (i.v. 100 mg/mL sodium valproate at 20 μL/min for 60 min), the “distribution and level of valproate in cochlear perilymph (apex to base, serial samples 1-4)” value was “Uniform distribution of valproate was observed throughout the cochlea at 3 hours; also recorded: uniform distribution and therapeutic levels”.
As to `O=C1NC(=O)[C@@H](c2cn3c4c(cccc24)CCC3)[C@@H]1c1c[nH]c2ccccc12` [Tivantinib, (3R,4R)-3-(5,6-dihydro-4H-pyrrolo[3,2,1-ij]quinolin-1-yl)-4-(1H-indol-3-yl)pyrrolidine-2,5-dione], the “Potency (nM) GSK3-alpha” value on GSK3-alpha [1] (Table 2) is given as 659 nM. Moreover, at GSK3-beta (Table 2), the “Potency (nM) GSK3-beta” value is 1865 nM.
As for `CCCC(CCC)C(=O)O` [Valproic Acid, 2-propyl pentanoic acid], the “perilymph valproic acid distribution and retention, systemic plus local versus local-only administration” value in series [5] is “improved the drug distribution and retention in guinea pig cochlea”.
“(3-aminopyrido[2,3-a]pyrrolo[3,4-c]carbazole-5,7(1H,6H)-dionato-κN^1,κN^12)carbonylchloro(2-pyridinemethanamine-κN^1,κN^2)-, (OC-6-24-A)-Ruthenium [lambda-OS1]”: on GSK3-alpha [1] (Table 2), the “Potency (nM) GSK3-alpha” value was 0.9 nM. The “Potency (nM) GSK3-beta” value on GSK3-beta (Table 2) is given as 6 nM.
Turning to “carbonyl(η^5-2,4-cyclopentadien-1-yl)(9-hydroxypyrido[2,3-a]pyrrolo[3,4-c]carbazole-5,7(1H,6H)-dionato-κN^1,κN^12)-Ruthenium [(R)-DW12]”, at GSK3-alpha [1] (Table 2), the “Potency (nM) GSK3-alpha” value is given as 0.5 nM. Moreover, the “Potency (nM) GSK3-beta” value on GSK3-beta (Table 2) is 1 nM.
